# Measured values taken from US4007167A, “Antibiotic BM123 and production thereof” (American Cyanamid Company, priority 1975, dated 1977).
# Legend:
# [1] = tested on: Pseudomonas aeruginosa 1A7; experiment: in vitro MIC, standard agar dilution procedure; assay type: cell-based; settings: for MIC: read-out: Minimal Inhibitory Concentration
# [2] = tested on: Staphylococcus aureus 4050B122-3; experiment: in vitro MIC, standard agar dilution procedure; assay type: cell-based; settings: for MIC: 4050B1223, read-out: Minimal Inhibitory Concentration
# [3] = tested on: Pseudomonas aeruginosa ATCC 10145; experiment: in vitro MIC, standard agar dilution procedure; assay type: cell-based; settings: for MIC: ATCC10145, read-out: Minimal Inhibitory Concentration
# [4] = tested on: Staphylococcus aureus Rose ATCC 14154; experiment: in vitro MIC, standard agar dilution procedure; assay type: cell-based; settings: for MIC: ATCC14154, read-out: Minimal Inhibitory Concentration
# [5] = tested on: Salmonella typhosa ATCC 6539; experiment: in vitro MIC, standard agar dilution procedure; assay type: cell-based; settings: for MIC: Salmonella enterica, read-out: Minimal Inhibitory Concentration; for Minimal Inhibitory Concentration: Salmonella typhosa ATCC 6539, agar dilution
# [6] = tested on: Enterobacter aerogenes 75; experiment: in vitro MIC, standard agar dilution procedure; assay type: cell-based; settings: for MIC: Klebsiella aerogenes, read-out: Minimal Inhibitory Concentration
# [7] = tested on: Mycobacterium smegmatis ATCC 607; experiment: in vitro MIC, standard agar dilution procedure; assay type: cell-based; settings: for MIC: Mycolicibacterium smegmatis, ATCC607, read-out: Minimal Inhibitory Concentration
# [8] = tested on: Proteus vulgaris ATCC 9484; experiment: in vitro MIC, standard agar dilution procedure; assay type: cell-based; settings: for MIC: ATCC9484, read-out: Minimal Inhibitory Concentration
# [9] = tested on: Salmonella gallinarum 605; experiment: in vitro MIC, standard agar dilution procedure; assay type: cell-based; settings: for MIC: Salmonella enterica, read-out: Minimal Inhibitory Concentration
# [10] = tested on: Bacillus subtilis No. 17 Stansly R-78; experiment: in vitro MIC, standard agar dilution procedure; assay type: cell-based; settings: for MIC: read-out: Minimal Inhibitory Concentration
# [11] = tested on: Streptococcus faecalis GK; experiment: in vitro MIC, standard agar dilution procedure; assay type: cell-based; settings: for MIC: Enterococcus faecalis, read-out: Minimal Inhibitory Concentration
# [12] = tested on: Bacillus cereus ATCC 9634; experiment: in vitro MIC, standard agar dilution procedure; assay type: cell-based; settings: for MIC: ATCC9634, read-out: Minimal Inhibitory Concentration
# [13] = tested on: Bacillus subtilis No. 18 Stansly R-76; experiment: in vitro MIC, standard agar dilution procedure; assay type: cell-based; settings: for MIC: read-out: Minimal Inhibitory Concentration
# [14] = tested on: Corynebacterium xerosis NRRL B-1397; experiment: in vitro MIC, standard agar dilution procedure; assay type: cell-based; settings: for MIC: NRRLB1397, read-out: Minimal Inhibitory Concentration
# [15] = tested on: Proteus mirabilis ATCC 4671; experiment: in vitro MIC, standard agar dilution procedure; assay type: cell-based; settings: for MIC: ATCC4671, read-out: Minimal Inhibitory Concentration
# [16] = tested on: Proteus morganii ATCC 8019; experiment: in vitro MIC, standard agar dilution procedure; assay type: cell-based; settings: for MIC: Morganella morganii, ATCC8019, read-out: Minimal Inhibitory Concentration
# [17] = tested on: Escherichia coli No. 29; experiment: in vitro MIC, standard agar dilution procedure; assay type: cell-based; settings: for MIC: read-out: Minimal Inhibitory Concentration
# [18] = tested on: Klebsiella pneumoniae AD; experiment: in vitro MIC, standard agar dilution procedure; assay type: cell-based; settings: for MIC: read-out: Minimal Inhibitory Concentration
# [19] = tested on: Sarcina lutea ATCC 9341; experiment: in vitro MIC, standard agar dilution procedure; assay type: cell-based; settings: for MIC: Micrococcus luteus, ATCC9341, read-out: Minimal Inhibitory Concentration
# [20] = tested on: Staphylococcus aureus Smith ATCC 13709; experiment: in vitro MIC, standard agar dilution procedure; assay type: cell-based; settings: for MIC: ATCC13709, read-out: Minimal Inhibitory Concentration
# [21] = tested on: Shigella shiga; experiment: microbe, parasite or virus in culture; assay type: cell-based; settings: for MIC: Shigella, read-out: Minimal Inhibitory Concentration; for Minimal Inhibitory Concentration: Shigella shiga, agar dilution
# [22] = tested on: Escherichia coli U-311; experiment: in vitro MIC, standard agar dilution procedure; assay type: cell-based; settings: for MIC: U311, read-out: Minimal Inhibitory Concentration
# [23] = tested on: Proteus mirabilis ATCC 4671; experiment: control of systemic lethal infection in mice, single subcutaneous dose; assay type: in vivo, mice (Carworth Farms CF-1)
# Method: (§1) These new substances show high in vivo antibacterial activity in mice against Proteus mirabilis ATCC 4671, Klebsiella pneumoniae AD, and Escherichia coli US311 when administered by a single subcutaneous dose to groups of Carworth Farms CF-1 mice, weight about 20 gm., infected intraperitoneally with a lethal dose of these bacteria in 10^-^1.6 , 10^-^4 and 10^-^3 trypticase soy broth TSP dilutions, respectively, of a 5 hour TSP blood culture.
# (§2) Table VII, below, illustrates the in vivo antibacterial activity of BM123α, BM123β, and BM123γ against these three bacteria.
# [24] = tested on: Escherichia coli US311; experiment: as above; assay type: in vivo, mice (Carworth Farms CF-1)
# Method: as §1, §2
# [25] = tested on: Klebsiella pneumoniae AD; experiment: as above; assay type: in vivo, mice (Carworth Farms CF-1)
# Method: as §1, §2
# [26] = tested on: Bacillus globigii; experiment: in vitro MIC, standard agar dilution procedure; assay type: cell-based
# [27] = tested on: a variety of organisms; experiment: in vivo antibacterial activity (general statement); settings: in words
# [28] = single subcutaneous dose 32 mg./kg.
# [29] = single subcutaneous dose 128 mg./kg.
# [30] = single subcutaneous dose 512 mg./kg.
compound,measurement,setting,value
"CC1OC(Oc2ccc(/C=C/C(=O)NCCCNCCCCN)cc2)C(NC(=N)N)C(O)C1NC(=O)NC1OCC(OC2OCC(O)C3NC(=O)N(C(N)=O)C23)C(O)C1NC(N)=O (single isomer, unassigned) [BM123γ1]",MIC,[1],5 µg/mL
same,MIC,[2],0.25 µg/mL
same,MIC,[3],2.5 µg/mL
same,MIC,[4],0.25 µg/mL
same,MIC,[5],0.05 µg/mL
same,MIC,[6],0.1 µg/mL
same,MIC,[7],0.1 µg/mL
same,MIC,[8],0.1 µg/mL
same,MIC,[9],0.1 µg/mL
same,MIC,[10],0.1 µg/mL
same,MIC,[11],2.5 µg/mL
same,MIC,[12],0.25 µg/mL
same,MIC,[13],0.25 µg/mL
same,MIC,[14],0.25 µg/mL
same,MIC,[15],0.25 µg/mL
same,MIC,[16],0.1 µg/mL
same,MIC,[17],0.05 µg/mL
same,MIC,[18],0.05 µg/mL
same,MIC,[19],0.5 µg/mL
same,MIC,[20],0.1 µg/mL
same,MIC,[21],0.25 µg/mL
same,MIC,[22],0.1 µg/mL
"CC1OC(Oc2ccc(/C=C/C(=O)NCCCNCCCCN)cc2)C(NC(=N)N)C(O)C1NC(=O)NC1OCC(OC2OCC3OC(=O)NC3C2NC(N)=O)C(O)C1NC(N)=O (single isomer, unassigned) [BM123γ2]",MIC,[1],10 µg/mL
same,MIC,[2],0.5 µg/mL
same,MIC,[3],5 µg/mL
same,MIC,[4],0.25 µg/mL
same,MIC,[5],0.05 µg/mL
same,MIC,[6],0.1 µg/mL
same,MIC,[7],0.25 µg/mL
same,MIC,[8],0.1 µg/mL
same,MIC,[9],0.1 µg/mL
same,MIC,[10],0.1 µg/mL
same,MIC,[11],2.5 µg/mL
same,MIC,[12],0.5 µg/mL
same,MIC,[13],0.25 µg/mL
same,MIC,[14],0.25 µg/mL
same,MIC,[15],0.25 µg/mL
same,MIC,[16],0.1 µg/mL
same,MIC,[17],0.1 µg/mL
same,MIC,[18],0.05 µg/mL
same,MIC,[19],1 µg/mL
same,MIC,[20],0.25 µg/mL
same,MIC,[21],0.25 µg/mL
same,MIC,[22],0.1 µg/mL
N=C(N)NCCCC(N)C(=O)NC1C(OC2C(CO)OC(OC3C(O)C(NC(=O)C4CCC(=N)N4)C(O)C(O)C3OC(N)=O)C(O)C2O)OC(CO)C(O)C1O (stereo not drawn) [BM123α],Minimal Inhibitory Concentration,[1],> 200 µg/mL
same,Minimal Inhibitory Concentration,[2],100 µg/mL
same,Minimal Inhibitory Concentration,[3],200 µg/mL
same,Minimal Inhibitory Concentration,[4],100 µg/mL
same,"Alive/Total Mice Tested, 7 Days After Infection",[23]; single subcutaneous dose 8 mg./kg.,0/5
same,"Alive/Total Mice Tested, 7 Days After Infection",[23]; [28],2/5
same,"Alive/Total Mice Tested, 7 Days After Infection",[23]; [29],3/5
same,"Alive/Total Mice Tested, 7 Days After Infection",[23]; [30],5/5
same,"Alive/Total Mice Tested, 7 Days After Infection",[24]; [28],1/5
same,"Alive/Total Mice Tested, 7 Days After Infection",[24]; [29],5/5
same,"Alive/Total Mice Tested, 7 Days After Infection",[24]; [30],5/5
same,"Alive/Total Mice Tested, 7 Days After Infection",[25]; [28],0/5
same,"Alive/Total Mice Tested, 7 Days After Infection",[25]; [29],0/5
same,"Alive/Total Mice Tested, 7 Days After Infection",[25]; [30],4/5
same,Minimal Inhibitory Concentration,[5],5 µg/mL
same,Minimal Inhibitory Concentration,[6],10 µg/mL
same,Minimal Inhibitory Concentration,[7],5 µg/mL
same,Minimal Inhibitory Concentration,[8],5 µg/mL
same,Minimal Inhibitory Concentration,[9],5 µg/mL
same,Minimal Inhibitory Concentration,[10],10 µg/mL
same,Minimal Inhibitory Concentration,[11],> 200 µg/mL
same,Minimal Inhibitory Concentration,[12],100 µg/mL
same,Minimal Inhibitory Concentration,[26],10 µg/mL
same,Minimal Inhibitory Concentration,[13],20 µg/mL
same,Minimal Inhibitory Concentration,[14],10 µg/mL
same,Minimal Inhibitory Concentration,[15],50 µg/mL
same,Minimal Inhibitory Concentration,[16],5 µg/mL
same,Minimal Inhibitory Concentration,[17],5 µg/mL
same,Minimal Inhibitory Concentration,[18],5 µg/mL
same,in vivo activity against a variety of organisms,[27],active in vivo
same,Minimal Inhibitory Concentration,[19],50 µg/mL
same,Minimal Inhibitory Concentration,[20],20 µg/mL
same,Minimal Inhibitory Concentration,[21],50 µg/mL
same,Minimal Inhibitory Concentration,[22],5 µg/mL
CC1OC(Oc2ccc(/C=C/C(=O)NCCCNCCCCN)cc2)C(NC(=N)N)C(O)C1NC(=O)NC1OCC(OC2OCC(O)C(N)C2NC(N)=O)C(O)C1NC(N)=O (stereo not drawn) [BM123β1],Minimal Inhibitory Concentration,[1],100 µg/mL
same,Minimal Inhibitory Concentration,[2],2.5 µg/mL
same,Minimal Inhibitory Concentration,[3],25 µg/mL
same,Minimal Inhibitory Concentration,[4],1 µg/mL
same,Minimal Inhibitory Concentration,[5],0.25 µg/mL
same,Minimal Inhibitory Concentration,[6],0.5 µg/mL
same,Minimal Inhibitory Concentration,[7],2.5 µg/mL
same,Minimal Inhibitory Concentration,[8],0.25 µg/mL
same,Minimal Inhibitory Concentration,[9],0.5 µg/mL
same,Minimal Inhibitory Concentration,[10],0.25 µg/mL
same,Minimal Inhibitory Concentration,[11],> 100 µg/mL
same,Minimal Inhibitory Concentration,[12],2.5 µg/mL
same,Minimal Inhibitory Concentration,[26],0.25 µg/mL
same,Minimal Inhibitory Concentration,[13],2.5 µg/mL
same,Minimal Inhibitory Concentration,[14],2.5 µg/mL
same,Minimal Inhibitory Concentration,[15],0.5 µg/mL
same,Minimal Inhibitory Concentration,[16],0.5 µg/mL
same,Minimal Inhibitory Concentration,[17],0.25 µg/mL
same,Minimal Inhibitory Concentration,[18],0.25 µg/mL
same,Minimal Inhibitory Concentration,[19],2.5 µg/mL
same,Minimal Inhibitory Concentration,[20],0.5 µg/mL
same,Minimal Inhibitory Concentration,[21],2.5 µg/mL
same,Minimal Inhibitory Concentration,[22],0.25 µg/mL
Gentamicin sulfate [reference compound],Minimal Inhibitory Concentration,[1],5 µg/mL
same,Minimal Inhibitory Concentration,[2],0.25 µg/mL
same,Minimal Inhibitory Concentration,[3],2.5 µg/mL
same,Minimal Inhibitory Concentration,[4],0.1 µg/mL
same,Minimal Inhibitory Concentration,[5],0.1 µg/mL
same,Minimal Inhibitory Concentration,[6],0.1 µg/mL
same,Minimal Inhibitory Concentration,[7],0.1 µg/mL
same,Minimal Inhibitory Concentration,[8],0.1 µg/mL
same,Minimal Inhibitory Concentration,[9],0.05 µg/mL
same,Minimal Inhibitory Concentration,[10],0.025 µg/mL
same,Minimal Inhibitory Concentration,[11],2.5 µg/mL
same,Minimal Inhibitory Concentration,[12],0.25 µg/mL
same,Minimal Inhibitory Concentration,[26],0.025 µg/mL
same,Minimal Inhibitory Concentration,[13],0.1 µg/mL
same,Minimal Inhibitory Concentration,[14],0.025 µg/mL
same,Minimal Inhibitory Concentration,[15],0.25 µg/mL
same,Minimal Inhibitory Concentration,[16],0.1 µg/mL
same,Minimal Inhibitory Concentration,[17],0.05 µg/mL
same,Minimal Inhibitory Concentration,[18],0.05 µg/mL
same,Minimal Inhibitory Concentration,[19],0.25 µg/mL
same,Minimal Inhibitory Concentration,[20],0.05 µg/mL
same,Minimal Inhibitory Concentration,[21],0.25 µg/mL
same,Minimal Inhibitory Concentration,[22],0.05 µg/mL
